Among the data in patent US5512466A, “Control of fruit ripening and senescence in plants” (Monsanto Company, priority 1991, dated 1996) are Km values, retold here.

In assay [1] the test system is ACC deaminase from bacterial strain 393 (B27449, St. Charles soil). The conditions noted are these: read-out: Km (ACC), crude desalted extract, Tris pH 8.0, 30° C., double reciprocal plot. Here is the method: (§1) The Km for the ACC deaminases isolated from the various soil sources was determined using crude, desalted extracts. Individual strains of bacteria were grown in liquid media containing 4 g KH2 PO4, 6.5 g K2 HPO4, 1 g MgSO4.7H2 O, 2 g glucose, 1 mg FeSO4, 1 mg MnCl2, 1 mg ZnSO4, 1 mg CuSO4, 1 mg CaCl2, and 300 mg ACC, all in 1 liter H2 O. Cells were grown for 2 to 3 days at 30° C. Cells were pelleted by centrifugation and resuspended in extraction buffer containing 0.1M phosphate, pH 7.5, 1 mM EDTA, 0.1% β-mercaptoethanol. The cells were broken with a French Press, 1000 psi, and the cell debris was pelleted by centrifugation. […] Glycerol was added to the extract (20% v/v) and enzyme solutions were stored at -20° C. ACC deaminase enzyme assays were conducted as described in the Examples to follow. The assay mixture contained 100 μl of 0.2M Tris buffer, pH 8.0, 30 μl of 500 mM ACC solution, and enzyme solution to make a final volume of 200 μl. Reactions were run for 10 minutes at 30° C. The reaction was stopped with 1.8 ml of 2N HCl. After adding 300 μl 0.1% 2,4-dinitrophenylhydrazine, the mixture was incubated for 15 minutes at 30° C. The solution was then made basic by adding 2 ml of 2N NaOH. The optical density of the resulting brownish-red solution was determined at 540 nm with a spectrophotometer.
(§2) The kinetic value, Km, for ACC deaminase was determined against ACC as the enzyme substrate for each of the ACC deaminases isolated. […] An estimated Km was determined for each extracted enzyme with ACC at sub-saturating concentrations. […] Actual Km values were then determined for each extract using ACC concentrations between 0.2× and 2× of the estimated Km, or ACC concentrations between 1 and 10 mM ACC. Km values were calculated from double reciprocal plots, plotting the reciprocal of the substrate concentration on the x-axis and the reciprocal of the velocity (α-ketobutyrate formed) on the y-axis.

For assay [2], the system named is ACC deaminase from bacterial strain T44 (B27817, Tanzania soil). The settings on record: read-out: Km (ACC), crude desalted extract, Tris pH 8.0, 30° C., double reciprocal plot. The method, then: as §1, §2
For assay [3], the system named is ACC deaminase from bacterial strain 401 (B27457, St. Charles soil, ACC enriched). The settings on record: read-out: Km (ACC), crude desalted extract, Tris pH 8.0, 30° C., double reciprocal plot. Here is the method:
as §1, §2

Assay [4] has as its system ACC deaminase from bacterial strain 388 (B27444, St. Charles soil, ACC enriched). The conditions noted are these: read-out: Km (ACC), crude desalted extract, Tris pH 8.0, 30° C., double reciprocal plot. The method, then: as §1, §2
Assay [5] deals with ACC deaminase from bacterial strain 392 (B27448, Peru soil). The conditions noted are these: read-out: Km (ACC), crude desalted extract, Tris pH 8.0, 30° C., double reciprocal plot. Here is the method: as §1, §2
In assay [6] the test system is ACC deaminase from Pseudomonas isolate 3F2 (gene SEQ ID NO:15, amino acid SEQ ID NO:16). The conditions noted are these: read-out: Km (ACC); strain 3F2; crude desalted extract, Tris pH 8.0, 30° C., double reciprocal plot. The method, then:
as §1, §2

In assay [7] the test system is ACC deaminase from bacterial strain 391 (B27447, Malaysia soil). The settings on record: read-out: Km (ACC), crude desalted extract, Tris pH 8.0, 30° C., double reciprocal plot. Here is the method: as §1, §2
The test system of assay [8] is ACC deaminase from bacterial strain PR-1 (B27813, Puerto Rico soil). The conditions noted are these: read-out: Km (ACC), crude desalted extract, Tris pH 8.0, 30° C., double reciprocal plot. The method, then: as §1, §2

For `NC1(C(=O)O)CC1` [ACC, 1-aminocyclopropane-1-carboxylic acid], the Km in assay [1] turned out to be 5.9 mM; in assay [2], 11.8 mM; in assay [3], 7.8 mM; in assay [4] it was 8.6 mM; in assay [5], 7.1 mM; in assay [6], 5.8 mM. Moreover, the Km in assay [7] was 17.4 mM; in assay [8] it was 4.1 mM.
